molecular target: T1, TLR8 (Homo sapiens, UniProt Q9NR97); assay: HEK-TLR8 NF-κB-luciferase reporter, R848 or Motolimod stimulation (potentiation or inhibition); type: cell-based; set-up: expressed in transfected cells; host or cells: 293XLhTLR8 (HEK293); conditions: MOE-modified ASO at 100 nM; averaged NF-κB-Luciferase relative to R848 condition (fold increase)
T1 sequence (Q9NR97 27-1041): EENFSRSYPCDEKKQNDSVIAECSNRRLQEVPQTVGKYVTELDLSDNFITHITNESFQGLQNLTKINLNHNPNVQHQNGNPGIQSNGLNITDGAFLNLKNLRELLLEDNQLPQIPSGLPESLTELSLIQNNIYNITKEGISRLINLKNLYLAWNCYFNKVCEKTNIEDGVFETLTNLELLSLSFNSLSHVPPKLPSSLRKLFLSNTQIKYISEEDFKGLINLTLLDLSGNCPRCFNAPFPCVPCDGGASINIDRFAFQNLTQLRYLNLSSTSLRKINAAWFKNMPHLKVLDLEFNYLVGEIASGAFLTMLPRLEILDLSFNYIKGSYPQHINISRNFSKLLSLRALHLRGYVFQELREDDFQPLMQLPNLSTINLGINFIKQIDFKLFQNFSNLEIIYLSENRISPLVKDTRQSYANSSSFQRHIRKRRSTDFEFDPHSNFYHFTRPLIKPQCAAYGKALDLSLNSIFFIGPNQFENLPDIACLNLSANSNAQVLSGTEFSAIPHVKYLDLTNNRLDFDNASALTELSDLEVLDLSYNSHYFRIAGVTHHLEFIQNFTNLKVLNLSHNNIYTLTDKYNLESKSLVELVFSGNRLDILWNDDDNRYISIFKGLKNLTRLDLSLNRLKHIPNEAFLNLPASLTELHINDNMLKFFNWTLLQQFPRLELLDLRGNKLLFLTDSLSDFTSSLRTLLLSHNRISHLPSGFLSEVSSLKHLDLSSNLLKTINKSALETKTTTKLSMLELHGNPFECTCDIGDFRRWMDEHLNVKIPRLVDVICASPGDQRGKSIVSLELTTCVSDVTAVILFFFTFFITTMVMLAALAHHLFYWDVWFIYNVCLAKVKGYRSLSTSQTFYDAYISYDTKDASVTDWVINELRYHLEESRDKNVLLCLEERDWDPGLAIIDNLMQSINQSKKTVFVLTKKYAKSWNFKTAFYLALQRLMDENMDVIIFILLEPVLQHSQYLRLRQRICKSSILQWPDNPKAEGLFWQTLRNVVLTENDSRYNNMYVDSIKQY

Going from “CTTACTTTCCGAGGTGTCCA (antisense; 2'-MOE modified, pattern not given here) [CAMSAP1-1739 MOE]” to “GAACCACGTCTGCTCTAACA (antisense; 2'-MOE modified, pattern not given here) [CAMSAP1-1635 MOE]”, the “TLR8 100 nM” value falls from 3.892 to 2.787.

Going from “GAGGTCTTGGCTTCGTGGAG (antisense; 2'-MOE modified, pattern not given here) [MB21D1-523 MOE]” to “GAGTCTCTGGAGCTTCCTCT (antisense; 2'-MOE modified, pattern not given here) [CAMSAP1-2456 MOE]”, the “TLR8 100 nM” value falls from 1.822 to 0.849.

Compared with “GATGCTCCTCGGTCTCCCTT (antisense; 2'-MOE modified, pattern not given here) [CAMSAP1-1850 MOE]”, “GATGGCCTCCCATCTCCTTC (antisense; 2'-MOE modified, pattern not given here) [HPRT-329 MOE]” is lower in “TLR8 100 nM” value: 1.392 for the first, 0.979 for the second.

Compared with “GCCGCTTTTCTGTCTGGTTC (antisense; 2'-MOE modified, pattern not given here) [CTNN2B-311 MOE]”, “GCGACTATACGCGCAATATG (antisense; 2'-MOE modified, pattern not given here) [NC5 2′MOE]” is higher in “TLR8 100 nM” value: 0.968 for the first, 1.067 for the second.

Going from “GCGGAGGTCTTGGCTTCGTG (antisense; 2'-MOE modified, pattern not given here) [MB21D1-526 MOE]” to “GCGTATTATAGCCGATTAAC (antisense; 2'-MOE modified, pattern not given here) [NC1 2′MOE]”, the “TLR8 100 nM” value rises from 1.598 to 1.883.

Compared with “GCGTGTCTGGAAGCTTCCTT (antisense; 2'-MOE modified, pattern not given here) [CTNN2B-809 MOE]”, “GCTTCAGGCGCTGCCTTGCC (antisense; 2'-MOE modified, pattern not given here) [CAMSAP1-2709 MOE]” is lower in “TLR8 100 nM” value: 1.179 for the first, 0.985 for the second.

Going from “GGAGATTTCAGAGCAGCTTC (antisense; 2'-MOE modified, pattern not given here) [EGFR-4885 MOE]” to “GGAGCTTCGAGGCCCCAGGC (MOE modified, pattern not given here) [MB21D1-616 MOE]”, the “TLR8 100 nM” value falls from 3.122 to 0.760.

First: GGAGGTCTTGGCTTCGTGGA (antisense; 2'-MOE modified, pattern not given here) [MB21D1-524 MOE]
Second: GGCATCCACCACGTCGTCCA (antisense; 2'-MOE modified, pattern not given here) [EGFR-3266 MOE]
The “TLR8 100 nM” value of the first is higher: 3.976 for the first, 1.619 for the second.

First: GGGAAAGGTTATGCAAGGTC (antisense; 2'-MOE modified, pattern not given here) [CTNN2B-916 MOE]
Second: GGTCCATACCCAAGGCATCC (antisense; 2'-MOE modified, pattern not given here) [CTNN2B-2446 MOE]
The “TLR8 100 nM” value of the first is higher: 3.117 for the first, 1.901 for the second.

Going from “GGTGGTCCACAACCCCTTTC (antisense; 2'-MOE modified, pattern not given here) [MB21D1-697 MOE]” to “GGTGGTGGCCACCCATCTCA (antisense; 2'-MOE modified, pattern not given here) [CTNN2B-2479 MOE]”, the “TLR8 100 nM” value falls from 2.121 to 1.491.

First: GGTGTCCTTGCACGTGGCTT (antisense; 2'-MOE modified, pattern not given here) [EGFR-1016 MOE]
Second: GTCCACATCCTGTGGCTCGT (antisense; 2'-MOE modified, pattern not given here) [CAMSAP1-2906 MOE]
The “TLR8 100 nM” value of the first is higher: 1.532 for the first, 0.919 for the second.

same assay, conditions: MOE-modified ASO at 500 nM; averaged NF-κB-Luciferase relative to R848 condition (fold increase)

First: CTTACTTTCCGAGGTGTCCA (antisense; 2'-MOE modified, pattern not given here) [CAMSAP1-1739 MOE]
Second: GAACCACGTCTGCTCTAACA (antisense; 2'-MOE modified, pattern not given here) [CAMSAP1-1635 MOE]
The “TLR8 500 nM” value of the first is higher: 4.827 for the first, 3.827 for the second.

Compared with “GAGGTCTTGGCTTCGTGGAG (antisense; 2'-MOE modified, pattern not given here) [MB21D1-523 MOE]”, “GAGTCTCTGGAGCTTCCTCT (antisense; 2'-MOE modified, pattern not given here) [CAMSAP1-2456 MOE]” is lower in “TLR8 500 nM” value: 2.164 for the first, 0.683 for the second.

Going from “GATGCTCCTCGGTCTCCCTT (antisense; 2'-MOE modified, pattern not given here) [CAMSAP1-1850 MOE]” to “GATGGCCTCCCATCTCCTTC (antisense; 2'-MOE modified, pattern not given here) [HPRT-329 MOE]”, the “TLR8 500 nM” value falls from 1.954 to 1.698.

Going from “GCCGCTTTTCTGTCTGGTTC (antisense; 2'-MOE modified, pattern not given here) [CTNN2B-311 MOE]” to “GCGACTATACGCGCAATATG (antisense; 2'-MOE modified, pattern not given here) [NC5 2′MOE]”, the “TLR8 500 nM” value rises from 0.369 to 0.883.

First: GCGGAGGTCTTGGCTTCGTG (antisense; 2'-MOE modified, pattern not given here) [MB21D1-526 MOE]
Second: GCGTATTATAGCCGATTAAC (antisense; 2'-MOE modified, pattern not given here) [NC1 2′MOE]
The “TLR8 500 nM” value of the first is lower: 2.226 for the first, 2.777 for the second.

First: GCGTGTCTGGAAGCTTCCTT (antisense; 2'-MOE modified, pattern not given here) [CTNN2B-809 MOE]
Second: GCTTCAGGCGCTGCCTTGCC (antisense; 2'-MOE modified, pattern not given here) [CAMSAP1-2709 MOE]
The “TLR8 500 nM” value of the first is lower: 0.494 for the first, 0.620 for the second.

First: GGAGATTTCAGAGCAGCTTC (antisense; 2'-MOE modified, pattern not given here) [EGFR-4885 MOE]
Second: GGAGCTTCGAGGCCCCAGGC (MOE modified, pattern not given here) [MB21D1-616 MOE]
The “TLR8 500 nM” value of the first is higher: 4.308 for the first, 0.380 for the second.

First: GGAGGTCTTGGCTTCGTGGA (antisense; 2'-MOE modified, pattern not given here) [MB21D1-524 MOE]
Second: GGCATCCACCACGTCGTCCA (antisense; 2'-MOE modified, pattern not given here) [EGFR-3266 MOE]
The “TLR8 500 nM” value of the first is higher: 5.288 for the first, 1.566 for the second.

Compared with “GGGAAAGGTTATGCAAGGTC (antisense; 2'-MOE modified, pattern not given here) [CTNN2B-916 MOE]”, “GGTCCATACCCAAGGCATCC (antisense; 2'-MOE modified, pattern not given here) [CTNN2B-2446 MOE]” is lower in “TLR8 500 nM” value: 3.500 for the first, 2.107 for the second.

First: GGTGGTCCACAACCCCTTTC (antisense; 2'-MOE modified, pattern not given here) [MB21D1-697 MOE]
Second: GGTGGTGGCCACCCATCTCA (antisense; 2'-MOE modified, pattern not given here) [CTNN2B-2479 MOE]
The “TLR8 500 nM” value of the first is higher: 3.700 for the first, 0.874 for the second.

Compared with “GGTGTCCTTGCACGTGGCTT (antisense; 2'-MOE modified, pattern not given here) [EGFR-1016 MOE]”, “GTCCACATCCTGTGGCTCGT (antisense; 2'-MOE modified, pattern not given here) [CAMSAP1-2906 MOE]” is lower in “TLR8 500 nM” value: 1.019 for the first, 0.493 for the second.

— US20240384268A1, “Oligonucleotides” (Hudson Institute of Medical Research, priority 2021, published 2024)
